Assay results from ChEMBL document CHEMBL2074435, “Quantitative analysis of breast cancer resistance protein and cellular resistance to flavopiridol in acute leukemia patients” (Clin Cancer Res, 2003).

Molecular target: T1, Broad substrate specificity ATP-binding cassette transporter ABCG2 (Homo sapiens, UniProt Q9UNQ0)
T1 sequence (Q9UNQ0 whole entry): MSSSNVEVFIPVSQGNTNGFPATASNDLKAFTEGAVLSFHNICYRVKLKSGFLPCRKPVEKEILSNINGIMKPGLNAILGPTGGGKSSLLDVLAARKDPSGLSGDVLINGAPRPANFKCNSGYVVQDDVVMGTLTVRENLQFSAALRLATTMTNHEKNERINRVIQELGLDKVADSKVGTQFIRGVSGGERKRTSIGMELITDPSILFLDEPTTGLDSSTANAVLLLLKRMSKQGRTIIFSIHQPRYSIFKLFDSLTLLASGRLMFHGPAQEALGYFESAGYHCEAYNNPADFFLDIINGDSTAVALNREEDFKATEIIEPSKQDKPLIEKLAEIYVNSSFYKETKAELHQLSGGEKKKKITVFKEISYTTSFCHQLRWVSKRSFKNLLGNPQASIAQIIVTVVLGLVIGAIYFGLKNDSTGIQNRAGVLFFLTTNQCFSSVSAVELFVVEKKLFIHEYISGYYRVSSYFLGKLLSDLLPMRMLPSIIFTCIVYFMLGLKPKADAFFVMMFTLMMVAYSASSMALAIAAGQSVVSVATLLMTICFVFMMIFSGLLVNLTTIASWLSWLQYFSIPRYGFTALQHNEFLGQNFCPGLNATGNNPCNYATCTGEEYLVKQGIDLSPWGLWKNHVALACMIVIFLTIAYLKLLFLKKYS
Assay: TP_TRANSPORTER: correlation hBCRPmRNA with flavopiridol induced apoptosis resistance
Assay type: functional, cell-based

## CN1CC[C@H](c2c(O)cc(O)c3c(=O)cc(-c4ccccc4Cl)oc23)[C@H](O)C1 [ALVOCIDIB]
  Activity: substrate []
